The text below walks through data of patent publication US20230382916A1, “HETEROARYL HETEROCYCLIC COMPOUNDS AND USES THEREOF” (HUTCHISON MEDIPHARMA LIMITED, priority 2020, published 2023).

In test [1] the test system is idiopathic thrombocytopenic purpura induced by anti-mouse CD41 antibodies. The test is described as follows: Idiopathic thrombocytopenic purpura induced by anti-CD41 antibody in mice, level of platelets. It is filed as in vivo. The settings on record: 40 mg/kg oral single dose. As for the experimental part: Male C57BL/6 mice were purchased from Shanghai Lingchang Biotechnology Co., Ltd. (certificate number 20180003011079, initial body weight of 18-20 grams), and were randomly grouped according to Table 4, with 8 mice in each group. […] When modeling, each mouse was intraperitoneally injected with 200 μL of PBS solution containing […] of anti-mouse CD41 antibodies (BD, Cat #: 553487, Lot #: 7026765).
Eight hours and twenty-four hours after modeling, the whole blood was collected and placed in a centrifuge tube coated with 10% citrate-phosphate-dextrose-adenine (CPDA), and the level of platelets (PLT) in the whole blood was measured by an XT-2000i (SYSMEX) automatic blood analyzer (Shanghai Laboratory Animal Research Centre Sino-British SIPPR/B & K Lab Animal Ltd).
The average level of platelets in peripheral blood was analyzed with Graphpad statistical software by one way ANOVA followed by Fisher LSD multiple comparison test, and the p value was calculated, wherein *p<0.05 indicated a statistically significant difference compared with the vehicle control group, **p<0.01 indicated a statistically extremely significant difference compared with the vehicle control group, and ##p<0.01 indicated a statistically extremely significant difference compared with the normal group.
RR %=(PLTtreatment−PLTmodel)/(PLTnaive−PLTmodel)×100%.

In another test the target is BTK recombinant protein (Homo sapiens (Human), UniProt Q06187). The test is described as follows: Determination of biochemical BTK (Z'-LYTE kinase assay). The settings on record: 32 μM ATP. The text has this: BTK recombinant protein: Invitrogen, Cat #PV3363;
Z′-LYTE® kinase test kit-tyrosine 1 peptide: Invitrogen, Cat #PV3190;
Z′-LYTE® biochemical assay employs a fluorescence resonance energy transfer (FRET)-based, coupled-enzyme format and is based on the differential sensitivity of phosphorylated and non-phosphorylated peptides to proteolytic cleavage. Both ends of the short peptide substrate are labeled with two fluorescent groups to form a FRET paired combination. In the primary reaction (the Kinase Reaction), the kinase transfers the γ-phosphate of ATP to a single […] residue on the short peptide substrate. In the secondary reaction (the development reaction), the non-phosphorylated short peptides were recognized and cleaved by a site-specific protease (the development reagent). Phosphorylated short peptides can resist such cleavage. Cleavage of short peptides can disrupt the donor (such as coumarin) and receptor fluorophores (fluorescein) on the short peptides, while the phosphorylated short peptides can maintain FRET. The calculation method of the ratio is as follows, and the ratio of the respective emission signals generated by the donor fluorophores emitted (after excitation at 400 nm) to the receptors is calculated. Emission signal ratio=emitted light by coumarin (445 nm)/emitted light by fluorescein (520 nm). If the FRET short peptide is phosphorylated (such as no kinase inhibitor), the emitted light ratio will remain in a lower level. If the FRET short peptide is non-phosphorylated (such as kinase inhibitor), the emitted light ratio will be in a higher level. In this way, the inhibitory effects of different compound inhibitors on BTK kinase activity would be distinguished.
The experiment was carried out according to the instructions of the Z′-LYTE® kinase test kit-tyrosine 1 peptide. Reagent preparation: 1.33× kinase buffer: 5× kinase buffer was diluted with water to 1.33× kinase buffer; an enzyme solution: the kinase was dissolved in 1.33× kinase buffer with the final working concentration being 3.32 nM; a short peptide solution: a short peptide stock solution (1 mM dissolved in DMSO) was dissolved in 1.33× kinase buffer with the final working concentration being 2 μM; Z′-LYTE Tyr01 phosphorylated short peptide solution, 0.6 μl of stock solution (1 mM dissolved in DMSO) was dissolved in 149.4 μl of 1.33× kinase buffer; an ATP solution: an ATP stock solution (10 mM aqueous solution) was dissolved in 1.33× kinase buffer with the final working concentration being 32 μM; a color-developing solution: color-developing solution B was dissolved in color-developing buffer with the final working concentration being 1× color-developing solution; 4× compound preparation: the compound was diluted in 3-fold gradient concentration to finally obtain 4% DMSO aqueous solution containing different concentrations of the compound, with the final working concentration being 3000, 1000, 333.33, 111.11, 37.04, 12.35, 4.12, 1.37 nM, 8 concentration points in total.
Specific steps of the experiment: In the experiment, there were three control groups, each with 8 replicate wells, which were C1 100% inhibition group (no ATP), C2 0% inhibition group (with ATP), and C3 100% phosphorylation group, respectively. 2.5 μl of serially diluted compound was added to each well of a 384-well plate, with double replicate wells, and 4% DMSO solution was added to wells C1, C2, and C3. After that, except for wells C3, 2.5 μl of BTK enzyme solution was added to each remaining well, which was left to stand at 4° C. for 30 minutes. After that, except for wells C3, 2.5 μl of short peptide solution was added to each well, and 5 μl of phosphorylated short peptide solution was added to each of wells C3. 2.5 μl of 1.33× kinase buffer was added to each of wells C1 and C3, and 2.5 μl of ATP solution was added to each of the remaining wells. The wells were centrifuged transiently, and the plate was shaken at 1000 rpm for 30 seconds to perform transient centrifuge. […]

Chain of BTK recombinant protein (Q06187 whole entry): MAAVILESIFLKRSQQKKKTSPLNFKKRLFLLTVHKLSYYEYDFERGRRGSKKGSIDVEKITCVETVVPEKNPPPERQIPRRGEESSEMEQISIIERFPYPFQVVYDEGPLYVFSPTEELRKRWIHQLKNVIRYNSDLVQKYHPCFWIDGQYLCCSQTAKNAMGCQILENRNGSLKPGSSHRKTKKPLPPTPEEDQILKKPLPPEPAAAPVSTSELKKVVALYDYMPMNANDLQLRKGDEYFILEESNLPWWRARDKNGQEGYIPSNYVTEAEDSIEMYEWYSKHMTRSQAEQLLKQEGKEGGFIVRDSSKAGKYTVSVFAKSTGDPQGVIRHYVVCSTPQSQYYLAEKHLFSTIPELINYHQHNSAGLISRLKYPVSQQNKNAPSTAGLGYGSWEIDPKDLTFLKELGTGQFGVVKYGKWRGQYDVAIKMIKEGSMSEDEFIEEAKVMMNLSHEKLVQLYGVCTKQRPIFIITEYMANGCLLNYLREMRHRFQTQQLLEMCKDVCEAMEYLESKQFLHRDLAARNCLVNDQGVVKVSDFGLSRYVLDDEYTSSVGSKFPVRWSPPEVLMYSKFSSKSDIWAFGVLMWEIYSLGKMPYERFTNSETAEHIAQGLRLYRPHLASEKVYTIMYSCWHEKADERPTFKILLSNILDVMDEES

`CC(C)(/C=C(\C#N)C(=O)N1CCC[C@@H](n2nc(-c3ccc(Oc4ccccc4)cc3F)c3c(N)ncnc32)C1)N1CCN(C2COC2)CC1` [PRN1008, rilzabrutinib, reference compound]: the “recovery rate of platelets” value stood at 40% in test [1] (8 hours after modeling) and 16% in test [1] (24 hours after modeling).
Broadly, the IC50 is the concentration at which inhibition is half-maximal. Turning to `C[C@H]1CN(C2COC2)C[C@H](C)N1c1ccc(Nc2cc(-c3ccnc(-n4ccn5c6c(c(F)c5c4=O)CCCC6)c3CO)cn(C)c2=O)nc1` [Compound 3], the IC50 at BTK recombinant protein turned out to be 3 nM.
Same read-out and setting: then `C[C@H]1CN(C)C[C@H](C)N1c1ccc(Nc2cc(-c3ccnc(-n4ccn5c6c(cc5c4=O)CC(C)(C)C6)c3CO)cn(C)c2=O)nc1` [Compound 6, 2-(3′-(hydroxymethyl)-1-methyl-6-oxo-5-((5-((2S,6S)-2,4,6-trimethylpiperazin-1-yl)pyridin-2-yl)amino)-1,6-dihydro-[3,4′-bipyridin]-2′-yl)-7,7-dimethyl-7,8-dihydro-2H-cyclopenta[4,5]pyrrolo[1,2-a]pyrazin-1(6H)-one], with 7 nM.
